Columns and labels:
[1] = cited from earlier work
[2] = tested on: MATE1/2K; details: cited from earlier work
[3] = design: method as in PMID 35248186; details: patients with RCC or UCC, COUGH-1 and COUGH-2; cited from earlier work
[4] = tested on: organic anion transporter P1B1; design: method as in PMID 34821075; details: twice-daily gefapixant 45 mg; cited from earlier work
[5] = Safety and tolerability in studies 1 to 4; format: in vivo, human
Experimental: Safety and tolerability for all studies were determined using clinical assessments, including physical examinations, vital signs, standard laboratory tests, 12‐lead electrocardiograms, and adverse events (AEs).

For `COc1cc(C(C)C)c(Oc2cnc(N)nc2N)cc1S(N)(=O)=O` [gefapixant, Gefapixant], the “excreted metabolites, share of the gefapixant dose” value [1] is listed as 14%, the “terminal half-life (t1/2)” value [1] is listed as “≈ 7 hours” and the “effect of inhibiting MATE1/2K via pyrimethamine on gefapixant exposure” value [2] is listed as “does not meaningfully increase”. The 24-hour cough frequency [3] was “significantly reduced”, the “effect on the pharmacokinetics of pitavastatin” value [4] was “no effect” and the “serious AEs” value ([5]; all 4 studies) was “no serious AEs”. The “severity of all AEs” value ([5]; all 4 studies) was “mild or moderate”, the “most commonly reported AEs” value ([5]; studies 1 and 2) was “taste related” and the “most common AE” value ([5]; studies 3 and 4) was “headache”.

— publication PMC9540877, “Clinical Formulation Bridging of Gefapixant, a P2X3‐Receptor Antagonist, for the Treatment of Chronic Cough” (Clinical Pharmacology in Drug Development, 2022)
